Source: patent publication US20170112564A1, “METHODS AND MATERIALS FOR TREATING HYPERTENSION” (Mayo Foundation for Medical Education and Research, priority 2014, published 2017)

What was measured:
[1] = tested on: healthy humans; assay: Brief escalating doses of trimethaphan camsylate with beat-to-beat arterial pressure to distinguish high and low sympathetic activity individuals; format: in vivo; settings: 24 healthy humans, infusion 1-4 mg/minute for 5-10 minutes
Method: Both normal human subjects and patients with diseases such as resistant hypertension can have very wide ranges of baseline sympathetic activity. The following was developed to distinguish those individuals with high levels of baseline sympathetic activity from individuals with lower levels of baseline sympathetic activity. Trimethaphan camsylate, a ganglionic blocking drug, was administered (e.g., by infusion) at 1-4 mg/minute for 5-10 minutes to 24 healthy humans, while non-invasive beat-to-beat measurements of arterial pressure were made. […] The relationship between the fall in blood pressure and baseline sympathetic activity in a group of about 20-30 healthy women ranging in age from their early 20's to their later 60's was determined (FIGS. 1 and 2). Similar data were obtained using healthy men. […] Those individuals with an elevated level of sympathetic activity responsive to a ganglionic blocking drug (e.g., a reduction in the number of bursts per minute that is greater than 10 burst per minute) can be optimal candidates for sympatholytic therapy.

[2] = tested on: young and older postmenopausal women; assay: Ganglionic (autonomic) blockade with trimethaphan camsylate in young and older postmenopausal women: blood pressure and muscle sympathetic nerve activity; format: in vivo, humans; settings: during trimethaphan
From the text: FIG. 1 is a graph plotting muscle sympathetic nerve activity (MSNA; bursts/min) as measured using a microneurography technique for 24 humans. The dose indicates the amount of trimethaphan in mg/min it took to abolish the sympathetic nerve bursts. The MSNA bursts per minute is the amount of sympathetic bursts that occurred at baseline, prior to drug infusion.
FIG. 2 is a graph plotting the same dose of trimethaphan in mg/min compared to the difference in mean arterial pressure (MAP) between baseline and at the final trimethaphan dose.
The effect of ganglionic blockade on arterial blood pressure and how this relates to baseline muscle sympathetic nerve activity in 12 young (25±1 years) and 12 older postmenopausal (61±2 years) women were examined. The women were studied before and during autonomic blockade using trimethaphan camsylate. At baseline, muscle sympathetic nerve activity burst frequency and burst incidence were higher in the older women (33±3 versus 15±1 bursts/min; 57±5 versus 25±2 bursts/100 heartbeats, respectively; P<0.05). Muscle sympathetic nerve activity bursts were abolished by trimethaphan within minutes (e.g., between about 6 and about 35 minutes). […] Baseline muscle sympathetic nerve activity was associated with the decrease in mean arterial pressure during trimethaphan (r=−0.74; P<0.05). See, also, Barnes et al., Hypertension, 63:303-308 (2014).

[3] = older postmenopausal women (61±2 years, n=12)

## O=C1N(Cc2ccccc2)C2C[S+]3CCCC3C2N1Cc1ccccc1 (stereo not drawn) [trimethaphan, trimethaphan camsylate]
[1]
  fall in blood pressure: directly related to baseline sympathetic activity
[2]; 12 young and 12 older postmenopausal women
  Muscle sympathetic nerve activity bursts: abolished
[2]; [3]
  decrease in mean arterial pressure: −29±2 mm Hg
  decrease in total peripheral resistance: −10±1 mm Hg/L per minute
[2]; young women (25±1 years, n=12)
  decrease in mean arterial pressure: −9±2 mm Hg
  decrease in total peripheral resistance: −5±1 mm Hg/L per minute
